Type in all cases: cell-based
The test system of assay [1] is CRC cell lines. Nature of the assay: High-throughput drug screen, panel of patient-derived cell lines. The following applies: Homo sapiens, in 4/6 cell lines, mined drug screen data, read-out: inhibits growth. The protocol:
Unless otherwise noted all experiments were carried out using the following materials and methods which are here presented as examples and not limiting embodiments. All equivalent variants are contemplated as part of the presently disclosed subject matter. An Echo Acoustic Dispenser provided automated liquid handling for drug addition while cell plating was performed by a Thermo Fisher Well Mate and assays used a Clarioscan plate reader. The drugs assayed were stamped to the cell plates immediately prior to cell plating at a final concentration of 1 μM. The drug pre-coated plates were plated with 500-1000 cells/well. 72 hours after cell plating cell viabilities were assessed via a CellTiter-Glo Luminescent Cell Viability Assay.
In this embodiment matching cells lines 31 and PDXs are created 32. These can be developed as described in the Uronis and Kim papers previously incorporated by reference. Drugs may subsequently be screened using these cell lines 33 the results validated in vivo 34 and RNA-Seq and molecular analysis 35 used. As a non-limiting example, CRC057, CRC119, CRC240, CRC247 15-496, and 16-159 were derived from patient colorectal cancers. It should be understood by those of skill in the art that any suitable type of cancer sample may have been taken. High-throughput drug screens, including 119 FDA-approved drug compounds, were performed using the patient-derived cell lines. […]

Assay [2] has as its system CRC 119. As to the kind of experiment: In vitro screening, ponatinib IC50 (cell viability). The settings on record: Homo sapiens, 72 hours after drug addition. The procedure:
(§1) For in vitro screening, cell lines were cultured in DMEM+10% FBS+1% Penicillin/Streptomycin and plated in drug free medium. Ponatinib solubilized in DMSO was added to cell lines containing between 3000-6000 cells that had been incubated at 37° C. for 24 hours. Each cell line was exposed to seven different drug combinations between 1.6 nM and 25 μM. Five replicates were used for each drug concentration. 72 hours after drug addition cell viability assay and IC50 values were calculated for each cell line using GraphPad Prism software.
(§2) Reanalyzing the screen data, FIG. 6A identified axitinib 61, sunitinib 62, and dasatinib 63 as targeting similar pathways as ponatinib 64. […] Pre and post ponatinib treatment the major signaling pathways downstream of FGFR, FIG. 7C, not only show a decrease in STAT expression FIG. 8 in CRC119 81, CRC240 83, and CRC057 85 but an increase in p-AKT expression in CRC 119 86, CRC240 87, and CRC057 88. Expression of p-ERK increased in CRC240 89, and CRC057 82 as well.

Assay [3] deals with CRC057. The assay is described as above. The settings on record: Homo sapiens, 72 hours after drug addition. The protocol:
as §1, §2

The subject of assay [4] is CRC240. The assay is described as above. The following applies: Homo sapiens, 72 hours after drug addition. The protocol:
as §1, §2

Where only a bound is given, the exact number is not on record here.

The IC50 is the concentration that gives 50% inhibition. Turning to `Cc1ccc(C(=O)Nc2ccc(CN3CCN(C)CC3)c(C(F)(F)F)c2)cc1C#Cc1cnc2cccnn12` [ponatinib], the inhibition at 1 µM in assay [1] is no less than 50%. Besides, the IC50 was determined as 1100 nM in assay [2], 700 nM in assay [3] and 1100 nM in assay [4].

For the origin of these results see patent publication US20250327791A1, “METHODS OF TREATMENT BASED ON PATIENT SPECIFIC CLINICAL TRIAL MODELS AND ASSOCIATED MODELS AND USES” (DUKE UNIVERSITY, priority 2017, published 2025).
